Measured values from patent US4377697A, “Imidazole hydrazone and hydrazine derivatives” (priority 1982, dated 1983).
Converted amounts (≈) assume the structure as drawn. Where a name gives a salt, the structure may show the parent alone. Read-outs that look alike come from different tables or passages of the source.

Legend:
Clostridium sporogenes = assay: in vitro anti-anaerobic assay, minimum inhibitory concentration; assay type: cell-based, Clostridium sporogenes (ATCC 19404); conditions: ATCC 19404, 24 hours at 37° C., range of three runs; for MIC: Clostridium sporogenes, ATCC19404, 24 h, read-out: Minimum Inhibitory Concentrations, Clostridium sporogenes
Experimental: (§1) The results of in vitro assays for a number of compounds according to the invention are given in Table 1, which follows the Examples.
(§2) These tests were conducted by mixing a series of decreasing amounts of the compound under test with a liquid nutrient medium that had been inoculated with one of the test organisms. These preparations were incubated for 24 hours at 37° C. under anaerobic conditions and were then examined for the presence of growth as indicated by the turbidity in the liquid medium. Results were recorded as the lowest concentrations, in mg/l, of test compound that prevented growth of the test organisms (minimal inhibitory concentrations). Each test was run three times and the range of results are indicated.

Bacterioides fragilis = assay: as above; assay type: cell-based, Bacterioides fragilis (ATCC 23745); conditions: ATCC 23745, 24 hours at 37° C., range of three runs; for MIC: 24 h, read-out: Minimum Inhibitory Concentrations, Bacterioides fragilis
Experimental: as §1, §2

Propionibacterium acnes = assay: as above; assay type: cell-based, Propionibacterium acnes (ATCC 6919); conditions: Cutibacterium acnes, ATCC6919, ATCC 6919, 24 hours at 37° C., range of three runs, read-out: Minimum Inhibitory Concentrations, Propionibacterium acnes
Experimental: as §1, §2

[1] = system: Desulfovibrio desulfuricans; assay: in vitro assay against non-pathogenic anaerobe, minimum inhibitory concentration; assay type: cell-based; conditions: 24 hours at 37° C., anaerobic, range of three runs; for MIC: Desulfovibrio desulfuricans, 24 h
Experimental: These preparations were incubated for 24 hours at 37° C. under anaerobic conditions and were then examined for the presence of growth as indicated by the turbidity in the liquid medium. […] The tests were conducted as described for the pathogenic organisms discussed above.

Candida albicans = assay: in vitro anti-fungal assay, minimum inhibitory concentration; assay type: cell-based
Experimental: as §2
(§3) The tests were conducted as described for the anaerobic bacteria with the exception that the organisms were incubated aerobically and kept at 30° C., apart from C.albicans which was kept at 37° C. Each test was run in duplicate.

Microsporum canis = assay: as above; assay type: cell-based; conditions: aerobic, 30° C., in duplicate, read-out: Minimum Inhibitory Concentrations, Microsporum canis
Experimental: as §2, §3

[2] = system: Trichophyton mentagrophytes; assay: as above; assay type: cell-based; conditions: aerobic, 30° C., in duplicate, read-out: Minimum Inhibitory Concentrations, Trichophyton mentagrophytes
Experimental: as §2, §3

Trichophyton rubrum = assay: as above; assay type: cell-based; conditions: aerobic, 30° C., in duplicate, read-out: Minimum Inhibitory Concentrations, Trichophyton rubrum
Experimental: as §2, §3

Epidermophyton floccosom = assay: as above; assay type: cell-based, Epidermophyton floccosum; conditions: aerobic, 30° C., in duplicate, read-out: Minimum Inhibitory Concentrations, Epidermophyton floccosom
Experimental: as §2, §3

anaerobic bacteria = conditions: known from the literature; cited from earlier work
[3] = reported in the literature; cited from earlier work
[4] = AIP-BREWER, read-out: Minimum Inhibitory Concentrations, D.desulfuricans AIP-BREWER
[5] = API SW2, read-out: Minimum Inhibitory Concentrations, D.desulfuricans API SW2
[6] = API-CORE, read-out: Minimum Inhibitory Concentrations, Desulfovibrio desulfuricans API-CORE
[7] = strain 3153, aerobic, 37° C., in duplicate, read-out: Minimum Inhibitory Concentrations, C.albicans 3153
[8] = strain A, aerobic, 37° C., in duplicate, read-out: Minimum Inhibitory Concentrations, Candida albicans A
[9] = strain B, aerobic, 37° C., in duplicate, read-out: Minimum Inhibitory Concentrations, C.albicans B
[10] = strain GB, aerobic, 37° C., in duplicate, read-out: Minimum Inhibitory Concentrations, C.albicans GB

Structure (SMILES)	MIC (Clostridium sporogenes) [µg/mL]	MIC (Bacterioides fragilis) [µg/mL]	MIC (Propionibacterium acnes) [µg/mL]	MIC [1, 4] [µg/mL]	MIC [1, 5] [µg/mL]	MIC [1, 6] [µg/mL]	MIC (Candida albicans; [7]) [µg/mL]	MIC (Candida albicans; [8]) [µg/mL]	MIC (Candida albicans; [9]) [µg/mL]	MIC (Microsporum canis) [µg/mL]	MIC [2] [µg/mL]	MIC (Trichophyton rubrum) [µg/mL]	other results
Clc1ccc(NN=C2c3ccccc3CCCC2n2ccnc2)c(Cl)c1 (centres unmarked) [1 (a), 6-(1H-imidazol-1-yl)6,7,8,9-tetrahydro-5-benzocycloheptanone, 2,4-dichlorophenylhydrazone, hydrogen oxalate]	0.5 to 2.5	1 to 2.5	2.5										Minimum Inhibitory Concentrations, D.desulfuricans AIP-BREWER ([1]; AIP-BREWER): 0.5 mg/L; Minimum Inhibitory Concentrations, D.desulfuricans API SW2 ([1]; API SW2): 0.5 mg/L
Clc1ccc(NN=C2c3ccccc3CCCC2n2ccnc2)c(Cl)c1 (centres unmarked) [1 (b), 6-(1H-imidazol-1-yl)-6,7,8,9-tetrahydro-5-benzocycloheptanone, 2,4-dichlorophenylhydrazone, hydrochloride]				0.5 to 0.75	0.5 to 1	0.5							Minimum Inhibitory Concentrations, Clostridium sporogenes (Clostridium sporogenes; hydrochloride): 0.5 to 1.0 mg/L; Minimum Inhibitory Concentrations, Bacterioides fragilis (Bacterioides fragilis; hydrochloride): 0.5 to 1.0 mg/L
Clc1ccc(NN=C2c3ccccc3CCCCC2n2ccnc2)c(Cl)c1 (centres unmarked) [1 (d), 6-(1H-Imidazol-1-yl)-7,8,9,10-tetrahydro-5(6H)-benzocyclooctanone, 2,4-dichlorophenylhydrazone hydrochloride]	0.5 to 0.75	1 to 2.5	0.5 to 2.5	0.5 to 1	0.5 to 0.75	0.5 to 2.5							
Clc1ccc(NN=C2c3sccc3CCCC2n2ccnc2)c(Cl)c1 (centres unmarked) [1 (j), 7-(1H-Imidazol-1-yl)-4,5,6,7-tetrahydro-8H-cyclohepta[b]-thiophen-8-one, 2 ,4-dichlorophenylhydrazone hydrogen oxalate]	1 to 2.5	0.75 to 1	5	0.5 to 0.75	0.75 to 1	0.75 to 1							
Clc1cc(Cl)c(NN=C2c3ccc(Cl)cc3CCCC2n2ccnc2)c(Cl)c1 (centres unmarked) [3 (b), 2-Chloro-6-(1H-imidazol-1-yl)-6,7,8,9-tetrahydro-5-benzocycloheptanone,2,4,6-trichlorophenylhydrazone hydrochloride]	0.75 to 1	0.75 to 1	5	0.75	0.75 to 2.5	0.75 to 1	6.2	6.2	6.2	25	25		MIC (Candida albicans; [10]): 6.2 µg/mL
Clc1cc(Cl)c(NN=C2c3ccccc3CCCCC2n2ccnc2)c(Cl)c1 (centres unmarked) [3 (c), 6-(1H-Imidazol-1-yl)-7,8,9,10-tetrahydro-5(6H)-benzocyclooctanone, 2,4,6-trichlorophenylhydrazone hydrochloride]	0.5 to 1	2.5	2.5	0.5 to 0.75	0.5 to 0.75	0.75 to 1							
Clc1cc(Cl)c(NN=C2c3ccccc3CCCC2n2ccnc2)c(Cl)c1 (centres unmarked) [3 (d), 6-(1H-Imidazol-1-yl)-6,7,8,9-tetrahydro-5-benzocycloheptanone, 2,4,6-trichlorophenylhydrazone hydrogen oxalate]							12.5	6.2	6.2	6.2	> 100	1.5	MIC (Candida albicans; [10]): 12.5 µg/mL
Cl.Clc1cc(Cl)c(NN=C2c3ccccc3OCCC2n2ccnc2)c(Cl)c1 (centres unmarked) [3 (i), 3,4-Dihydro-4-(1H-imidazol-1-yl)-1-benzoxepin-5(2H)-one, 2,4,6-trichlorophenylhydrazone hydrochloride]							12.5	12.5	12.5	3.1	3.1	6.2	MIC (Epidermophyton floccosom): 3.1 µg/mL
Clc1cc(Cl)c(NN=C2c3ccsc3CCCC2n2ccnc2)c(Cl)c1 (centres unmarked) [3 (l), 5-(1H-Imidazol-1-yl)-5,6,7,8-tetrahydro-4H-cyclohepta[b]thiophen-4-one,2,4,6-trichlorophenylhydrazone hydrogen oxalate]							12.5	6.2	6.2	12.5	25	12.5	MIC (Epidermophyton floccosom): 6.2 µg/mL
Cc1ncc([N+](=O)[O-])n1CCO [Metronidazole, metronidazole, reference compound]	0.5 (≈ 2.92 µM)	0.5 (≈ 2.92 µM)	> 100	0.5 (≈ 2.92 µM)	0.5 (≈ 2.92 µM)	0.5 (≈ 2.92 µM)							activity against anaerobic bacteria (anaerobic bacteria): active against anaerobic bacteria; teratogenicity [3]: teratogenic
Clc1ccc(COC(Cn2ccnc2)c2ccc(Cl)cc2Cl)c(Cl)c1 (centres unmarked) [Miconazole, reference compound]										6.2 (≈ 14.9 µM)	1.5 (≈ 3.6 µM)	3.1 (≈ 7.45 µM)	MIC (Candida albicans; read-out: Minimum Inhibitory Concentrations, C.albicans 3153): 12.5 µg/mL (≈ 30 µM); MIC (Candida albicans; read-out: Minimum Inhibitory Concentrations, C.albicans B): 6.2 µg/mL (≈ 14.9 µM); MIC (Candida albicans; read-out: Minimum Inhibitory Concentrations, C.albicans GB): 12.5 µg/mL (≈ 30 µM); MIC (Candida albicans; read-out: Minimum Inhibitory Concentrations, Candida albicans A): 6.2 µg/mL (≈ 14.9 µM); MIC (Epidermophyton floccosom): 6.2 µg/mL (≈ 14.9 µM)
